We go through one compound from patent US20150231109A1, “COMBINATIONS (CATECHINS AND METHOTREXATE) FOR USE IN THE TREATMENT OF MELANOMAS” (UNIVERSIDAD DE MURCIA, priority 2012, published 2015).

In series [1] the test system is melanoma (SK-MEL-28, G361) cell lines. Kind of series: MTX/TMECG synergy titration (apoptosis), melanoma cell lines. The format is cell-based, human. The conditions noted are these: apoptosis after 4 days. On the procedure:
FIGS. 5A-D. The effects of MTX and/or TMECG on the growth of melanoma cell lines. A, Viability was determined by the MTT assay. Cells were treated with vehicle only (•), 10 μM TMECG ( ), 1 μM MTX (▴) or with a combination of 1 μM MTX+10 μM TMECG (▾). Table outlines p53, BRAF, NRAS, and PTEN status with specific amino acid substitutions. […] B, MTX/TMECG synergy test for melanoma and non-melanoma cancer cells in which drugs were combined in 6×6 matrices where the concentration of one drug was increased along each axis. The lowest concentration was 0 and the highest concentration was chosen close to the IC50 for each drug in each assayed cell line. Apoptosis was determined after 4 days of treatment. Data were obtained in triplicate in two independent experiments. […]
The induction of apoptosis was assessed by performing cytoplasmic histone-associated DNA fragmentation using a kit from Roche Diagnostics (Barcelona, Spain). […] The amount of nucleosomes is photometrically quantified at 405 nm by the peroxidase activity retained in the immunocomplexes. Apoptosis was defined as the specific enrichment of mono- and oligonucleosomes in the cytoplasm and was calculated by dividing the absorbance of treated samples by the absorbance of untreated samples after correcting for the number of cells. […]

Series [2] can be described thus: Toxicology in non-tumor inoculated C57BL/6 mice. It is filed as in vivo, mouse. As to the method: FIGS. 4A-N. MTX and TMECG combination therapy is effective in vivo. A, A375 melanoma cells were included in a human reconstructed skin model and were treated with MTX (1 μM) and/or TMECG (10 μM) for 14 days. B, B16/F10 melanoma cells were injected subcutaneously into C57/B16 mice. Images show tumor size 17 days post-injection in control and treated mice. […] C, Luciferase imaging of control and MTX/TMECG-treated mice 12 days post-tumor cell injection. Beetle luciferin (120 mg/kg of mouse) was injected intraperitoneally. The values (means±s.d.) are representative of three independent experiments. *P=0.007; **P=0.002. D, Bioluminescent imaging of livers at 14 days post-intrasplenic injection of B16-F10-luc-G5 cells from untreated and MTX/TMECG-treated mice are shown. E, Quantification of macrometastases (0-10, 10-25 or >25) after treatment with vehicle (control), MTX (1 mg/kg/day), and/or TMECG (50 mg/kg/day). F, Photomicrograph of H&E-stained, 4 μm formalin-fixed, paraffin-embedded liver sections from control (DMSO) and MTX/TMECG-treated mice (1 and 50 mg/kg/day, respectively) (5× magnification). G, MTX activation of MITF and tyrosinase activates the melanoma-specific antifolate activity of TMECG, leading to depletion of cellular dTTP and apoptosis. H, Sections stained with hematoxylin and eosin show the effect of MTX/TMECG on B16/F10 primary splenic tumors. Xenograft tumors treated with DMSO (vehicle) or MTX/TMECG (1 mg/kg/day and 50 mg/kg/day, respectively) over 14-days. […] Representative images taken from two independent experiments (n=5 for each experiment). Scale bar=200 μm and is applicable to both panels. I, B16/F10 melanoma cells, expressing a luciferase reporter, were injected subcutaneously to mice. Mice were divided in two groups (n=7) and treated with vehicle (DMSO) or MTX/TMECG (1 mg/kg/day and 10 mg/kg/day, respectively) over 21-days. Then, tumors were pooled and dissociated. B16/F10 cells extracted from tumors were examined for their sensitivity to the MTX/TMECG combination (1 μM and 10 μM, respectively) using quantification of the luminescence signal (left panel). J, The histogram represents the number of B16/F10-luc2 cells remaining after 3 days of MTX/TMECG treatment with respect to vehicle treated controls (100%). […] K, The morphology of tumor dissociated B16/F10-luc2 cells before and after of MTX/TMECG treatment. Scale bar refers to all panels. L, Histograms represent the number of copies of TYR mRNA for every 1×10^3 copies of β-actin±SD of three independent experiments. […]
To explore the toxicity of TMECG and MTX, these agents (at indicated concentrations) were administrated intradermally to the back of non-tumor inoculated female C57BL/6 mice (n=10), and body weight monitored every other day. […]

Another series deals with Caco-2. Kind of series: HPLC/MS/MS intracellular levels of MTX in Caco-2. The format is cell-based. The conditions noted are these: Caco-2, same MTX treatment (24 h, 1 μM).

The structures appear in SMILES notation.

Consider `CN(Cc1cnc2nc(N)nc(N)c2n1)c1ccc(C(=O)N[C@@H](CCC(=O)O)C(=O)O)cc1` [MTX, methotrexate], for which the “sensitivity to MTX alone, melanoma versus non-melanoma lines” value in series [1] is on record as “substantially less sensitive”. For the same compound, the mouse body weight entry in series [2] (MTX 10 mg/kg/day) is reported as “induced some weight loss”; in series [2] (MTX alone 1 mg/Kg/day), “no effect”. Further, the “intracellular levels of MTX” value in the series with Caco-2 came out at 0.8 ± 0.3 pmol/106 cells.
